ChEMBL document CHEMBL3351429, “Phenyl substituted 4-hydroxypyridazin-3(2H)-ones and 5-hydroxypyrimidin-4(3H)-ones: inhibitors of influenza A endonuclease” (J Med Chem, 2014)

Test: Inhibition of influenza A virus H1N1 endonuclease (1 to 204 residues) expressed in Escherichia coli BL21 (RIL) using (6-FAM)-TGGCAATATCAGCTCCACA(MGBNFQ) single-stranded DNA probe by fluorimetry

SMILES	IC50
O=c1[nH]nc(-c2ccc(F)cc2)cc1O	6000 nM
O=c1[nH]nc(-c2ccc(-c3nnn[nH]3)cc2)cc1O	3000 nM
O=c1[nH]c(-c2ccc(-c3nnn[nH]3)cc2)ncc1O	150 nM
O=c1[nH]c(-c2ccc(F)cc2)ncc1O	580 nM
O=c1[nH]ncc(-c2ccc(F)cc2)c1O	177000 nM
O=c1[nH]c(-c2cccc(F)c2)ncc1O	1560 nM
O=c1[nH]c(-c2ccccc2F)ncc1O	1670 nM
O=c1[nH]cnc(-c2ccc(F)cc2)c1O	> 193000 nM
O=c1[nH]c(-c2cccc(-c3ccccc3)c2)ncc1O	400 nM
N#Cc1ccc(-c2ncc(O)c(=O)[nH]2)cc1	520 nM
N#Cc1cccc(-c2ncc(O)c(=O)[nH]2)c1	250 nM
O=c1[nH]c(-c2ccccc2-c2ccccc2)ncc1O	1100 nM
N#Cc1ccc(-c2cc(O)c(=O)[nH]n2)cc1	9300 nM
O=c1[nH]c(-c2cccc(-c3nnn[nH]3)c2)ncc1O	480 nM
O=c1[nH]cc(-c2ccc(F)cc2)cc1O	730 nM
O=c1[nH]cc(-c2ccc(F)cc2)[nH]c1=O	59000 nM
O=c1[nH]c(-c2ccc(-c3ccccc3)cc2)ncc1O	2240 nM
O=c1[nH]c(-c2ccc(F)cc2)ccc1O	430 nM
